US20090227575A1, “7H-PYRROLO[2,3-H]QUINAZOLINE COMPOUNDS, THEIR USE AS mTOR KINASE AND PI3 KINASE INHIBITORS, AND THEIR [sequence]” (Wyeth, priority 2008, published 2009)

Experiments:
Assay type in all cases: biochemical
[1] = target: PI3K-gamma (Homo sapiens, UniProt P48736); assay: PI3K-gamma fluorescence polarization assay; conditions: read-out: PI3 Kinase γ IC50
Outline: (§1)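 Diluted enzyme and compound (1% DMSO) reacted with diC8 PIP2 and ATP substrate in 20 mM HEPES pH 7.5, 2 mM MgCl2, 0.05% CHAPS for 30–60 min. Stopped with EDTA buffer holding 10 nM TAMRA probe and 70 nM GST-GRP. FP (mP) read after 30–90 min against zero-time and no-enzyme controls.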

[2] = target: Human mTOR (Homo sapiens, UniProt P42345); assay: mTOR kinase assay (DELFIA format, purified enzyme); parameters: FLAG; conditions: read-out: TOR Kinase IC50
[3] = target: PI3K-alpha (Homo sapiens, UniProt P42336); assay: PI3K-alpha fluorescence polarization assay; conditions: read-out: PI3 Kinase α IC50
Outline: as §1

[4] = target: human SMG-1 (hSMG-1) (Homo sapiens, UniProt Q96Q15); assay: hSMG-1 kinase assay (DELFIA); conditions: read-out: hSMG1 IC50
human SMG-1 (hSMG-1), sequence (Q96Q15 whole entry): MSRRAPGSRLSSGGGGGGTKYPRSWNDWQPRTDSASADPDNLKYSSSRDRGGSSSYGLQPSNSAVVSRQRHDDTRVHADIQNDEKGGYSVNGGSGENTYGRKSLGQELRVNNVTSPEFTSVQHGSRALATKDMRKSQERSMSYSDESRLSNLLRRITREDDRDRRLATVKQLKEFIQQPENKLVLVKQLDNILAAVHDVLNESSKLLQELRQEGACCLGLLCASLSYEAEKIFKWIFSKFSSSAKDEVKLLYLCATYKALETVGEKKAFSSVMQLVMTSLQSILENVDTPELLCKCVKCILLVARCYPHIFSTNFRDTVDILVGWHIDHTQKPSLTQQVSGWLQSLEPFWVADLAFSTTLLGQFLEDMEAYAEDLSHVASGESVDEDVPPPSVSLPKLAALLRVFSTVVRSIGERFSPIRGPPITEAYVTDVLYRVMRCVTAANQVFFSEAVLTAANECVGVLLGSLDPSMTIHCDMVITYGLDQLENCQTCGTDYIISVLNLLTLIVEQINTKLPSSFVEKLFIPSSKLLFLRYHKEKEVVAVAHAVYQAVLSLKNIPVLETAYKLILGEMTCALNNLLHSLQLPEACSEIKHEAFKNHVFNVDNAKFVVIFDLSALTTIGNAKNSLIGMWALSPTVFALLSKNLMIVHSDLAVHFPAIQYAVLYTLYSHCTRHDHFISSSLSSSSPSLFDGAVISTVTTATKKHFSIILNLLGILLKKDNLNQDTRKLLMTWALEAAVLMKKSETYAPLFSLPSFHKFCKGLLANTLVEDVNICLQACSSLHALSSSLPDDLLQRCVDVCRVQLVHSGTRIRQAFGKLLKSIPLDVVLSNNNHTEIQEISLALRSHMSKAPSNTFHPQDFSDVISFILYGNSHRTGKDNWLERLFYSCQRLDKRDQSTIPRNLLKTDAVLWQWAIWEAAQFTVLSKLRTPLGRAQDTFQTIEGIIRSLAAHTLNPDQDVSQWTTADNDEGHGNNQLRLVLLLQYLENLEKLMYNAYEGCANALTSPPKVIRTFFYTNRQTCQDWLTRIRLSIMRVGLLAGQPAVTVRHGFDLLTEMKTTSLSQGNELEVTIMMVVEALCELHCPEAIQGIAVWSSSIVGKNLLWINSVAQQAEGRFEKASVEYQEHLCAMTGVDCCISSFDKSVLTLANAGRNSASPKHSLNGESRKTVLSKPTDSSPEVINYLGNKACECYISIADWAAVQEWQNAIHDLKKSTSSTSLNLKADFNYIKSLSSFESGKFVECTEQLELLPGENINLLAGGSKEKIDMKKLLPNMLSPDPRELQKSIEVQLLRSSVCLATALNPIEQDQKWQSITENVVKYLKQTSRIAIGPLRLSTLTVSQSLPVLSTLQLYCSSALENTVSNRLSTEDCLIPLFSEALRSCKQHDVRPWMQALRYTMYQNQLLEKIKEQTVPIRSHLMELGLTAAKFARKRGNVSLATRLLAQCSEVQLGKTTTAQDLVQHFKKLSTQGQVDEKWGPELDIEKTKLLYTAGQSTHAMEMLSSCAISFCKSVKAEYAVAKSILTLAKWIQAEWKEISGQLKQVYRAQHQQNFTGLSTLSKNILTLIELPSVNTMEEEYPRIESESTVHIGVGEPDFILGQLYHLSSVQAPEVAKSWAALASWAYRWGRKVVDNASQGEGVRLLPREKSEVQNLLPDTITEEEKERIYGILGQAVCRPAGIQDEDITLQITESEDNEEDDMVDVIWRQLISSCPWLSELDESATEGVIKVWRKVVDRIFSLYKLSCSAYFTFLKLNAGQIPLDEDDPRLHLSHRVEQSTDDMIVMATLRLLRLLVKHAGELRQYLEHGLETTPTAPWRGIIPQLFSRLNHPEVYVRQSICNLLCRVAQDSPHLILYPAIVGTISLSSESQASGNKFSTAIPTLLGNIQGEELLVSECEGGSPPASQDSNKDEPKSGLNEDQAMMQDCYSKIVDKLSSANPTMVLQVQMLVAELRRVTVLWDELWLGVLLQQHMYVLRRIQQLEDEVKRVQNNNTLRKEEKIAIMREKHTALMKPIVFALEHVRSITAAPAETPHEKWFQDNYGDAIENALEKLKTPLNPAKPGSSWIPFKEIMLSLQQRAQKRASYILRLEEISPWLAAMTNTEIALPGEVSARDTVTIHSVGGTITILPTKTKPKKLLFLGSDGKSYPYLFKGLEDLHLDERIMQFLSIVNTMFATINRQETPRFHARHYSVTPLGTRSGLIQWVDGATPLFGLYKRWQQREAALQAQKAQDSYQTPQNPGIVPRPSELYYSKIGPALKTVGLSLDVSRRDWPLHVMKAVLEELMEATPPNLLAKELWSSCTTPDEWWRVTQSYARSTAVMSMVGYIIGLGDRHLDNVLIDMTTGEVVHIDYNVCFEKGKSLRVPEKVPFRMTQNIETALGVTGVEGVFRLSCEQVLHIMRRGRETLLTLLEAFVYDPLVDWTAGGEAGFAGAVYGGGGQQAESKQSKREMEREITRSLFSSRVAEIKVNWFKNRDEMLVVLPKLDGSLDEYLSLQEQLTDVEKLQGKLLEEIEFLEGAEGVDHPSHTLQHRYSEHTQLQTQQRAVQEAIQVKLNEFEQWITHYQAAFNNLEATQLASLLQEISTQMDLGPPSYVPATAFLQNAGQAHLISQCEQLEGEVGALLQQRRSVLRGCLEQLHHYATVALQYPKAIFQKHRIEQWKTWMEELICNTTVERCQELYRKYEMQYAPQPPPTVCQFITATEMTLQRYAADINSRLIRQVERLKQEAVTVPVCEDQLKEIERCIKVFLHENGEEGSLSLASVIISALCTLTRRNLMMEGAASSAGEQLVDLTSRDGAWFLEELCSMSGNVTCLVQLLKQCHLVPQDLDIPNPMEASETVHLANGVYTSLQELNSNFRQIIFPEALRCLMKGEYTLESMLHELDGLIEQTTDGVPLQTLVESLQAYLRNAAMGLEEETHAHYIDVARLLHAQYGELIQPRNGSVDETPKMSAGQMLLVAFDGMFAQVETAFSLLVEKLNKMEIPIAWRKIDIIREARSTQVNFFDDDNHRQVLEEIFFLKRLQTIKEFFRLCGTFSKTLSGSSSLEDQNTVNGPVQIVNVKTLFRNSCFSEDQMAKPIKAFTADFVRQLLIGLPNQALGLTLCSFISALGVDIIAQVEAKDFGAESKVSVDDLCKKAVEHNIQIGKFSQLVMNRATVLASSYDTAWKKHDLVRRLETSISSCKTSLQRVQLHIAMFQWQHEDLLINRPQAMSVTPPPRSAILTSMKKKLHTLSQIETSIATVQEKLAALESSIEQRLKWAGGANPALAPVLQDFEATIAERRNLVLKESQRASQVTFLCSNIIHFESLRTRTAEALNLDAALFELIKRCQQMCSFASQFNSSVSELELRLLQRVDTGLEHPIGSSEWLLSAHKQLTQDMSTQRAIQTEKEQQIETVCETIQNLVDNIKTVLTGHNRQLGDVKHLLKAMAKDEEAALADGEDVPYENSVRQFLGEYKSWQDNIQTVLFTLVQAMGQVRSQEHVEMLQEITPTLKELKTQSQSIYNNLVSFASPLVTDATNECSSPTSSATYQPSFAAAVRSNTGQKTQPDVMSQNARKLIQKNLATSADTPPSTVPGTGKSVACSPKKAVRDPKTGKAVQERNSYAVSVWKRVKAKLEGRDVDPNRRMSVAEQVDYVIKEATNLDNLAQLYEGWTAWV

PI3K-gamma, sequence (P48736 whole entry, species assumed): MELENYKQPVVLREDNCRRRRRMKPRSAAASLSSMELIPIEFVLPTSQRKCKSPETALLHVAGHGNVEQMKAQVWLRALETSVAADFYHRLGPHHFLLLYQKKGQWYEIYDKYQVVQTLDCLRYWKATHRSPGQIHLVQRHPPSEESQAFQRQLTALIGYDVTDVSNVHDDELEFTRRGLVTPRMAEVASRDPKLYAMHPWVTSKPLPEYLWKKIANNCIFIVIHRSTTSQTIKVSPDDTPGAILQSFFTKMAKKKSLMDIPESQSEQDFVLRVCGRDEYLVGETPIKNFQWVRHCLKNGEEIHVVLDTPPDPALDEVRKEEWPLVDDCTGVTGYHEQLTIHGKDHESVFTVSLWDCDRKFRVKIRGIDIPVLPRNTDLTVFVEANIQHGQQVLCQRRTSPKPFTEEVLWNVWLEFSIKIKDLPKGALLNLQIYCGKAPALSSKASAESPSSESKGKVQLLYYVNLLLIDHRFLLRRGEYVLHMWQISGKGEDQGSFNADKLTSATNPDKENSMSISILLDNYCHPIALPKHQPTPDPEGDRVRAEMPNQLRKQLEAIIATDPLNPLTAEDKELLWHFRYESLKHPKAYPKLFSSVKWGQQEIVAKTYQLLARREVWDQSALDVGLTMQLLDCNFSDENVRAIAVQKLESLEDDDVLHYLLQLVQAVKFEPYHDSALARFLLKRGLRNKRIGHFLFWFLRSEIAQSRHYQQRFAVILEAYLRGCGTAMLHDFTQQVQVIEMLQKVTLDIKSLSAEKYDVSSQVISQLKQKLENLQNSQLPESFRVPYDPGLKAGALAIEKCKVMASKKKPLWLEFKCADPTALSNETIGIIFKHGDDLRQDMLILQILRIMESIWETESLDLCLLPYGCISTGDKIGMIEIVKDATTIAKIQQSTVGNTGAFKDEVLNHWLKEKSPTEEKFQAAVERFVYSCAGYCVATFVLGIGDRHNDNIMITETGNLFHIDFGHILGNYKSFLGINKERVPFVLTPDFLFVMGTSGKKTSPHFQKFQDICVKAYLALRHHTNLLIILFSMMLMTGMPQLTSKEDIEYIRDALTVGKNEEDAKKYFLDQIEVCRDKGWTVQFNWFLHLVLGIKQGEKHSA

Compound | IC50 [1] | IC50 [2] | IC50 [3] | IC50 [4]
COCOc1cncc(-c2nc(N3CCOCC3)c3ccc4c(ccn4C)c3n2)c1 [Example 77, 2-[5-(methoxymethoxy)pyridin-3-yl]-7-methyl-4-morpholin-4-yl-7H-pyrrolo[2,3-h]quinazoline] | 933 nM | 525 nM | 451 nM | –
Cn1ccc2c3nc(-c4cncc(O)c4)nc(N4CCOCC4)c3ccc21 [Example 78, 5-(7-methyl-4-morpholin-4-yl-7H-pyrrolo[2,3-h]quinazolin-2-yl)pyridin-3-ol] | 390 nM | 305 nM | 73 nM | –
Cn1ccc2c3nc(-c4cccc5[nH]ncc45)nc(N4CCOCC4)c3ccc21 [Example 79, 2-(1H-indazol-4-yl)-7-methyl-4-morpholin-4-yl-7H-pyrrolo[2,3-h]quinazoline] | 6090 nM | 435 nM | 1080 nM | –
c1cc(-c2nc(N3CCOCC3)c3ccc4[nH]ccc4c3n2)c2cn[nH]c2c1 [Example 80, 2-(1H-indazol-4-yl)-4-morpholin-4-yl-7H-pyrrolo[2,3-h]quinazoline] | > 10000 nM | 2080 nM | 10300 nM | –
O=Cc1c[nH]c2ccc3c(N4CCOCC4)nc(-c4cccc(O)c4)nc3c12 [Example 82, 2-(3-hydroxyphenyl)-4-morpholin-4-yl-7H-pyrrolo[2,3-h]quinazoline-9-carbaldehyde] | 147 nM | 16 nM | 111 nM | –
OCc1cccc(-c2nc(N3CCOCC3)c3ccc4c(ccn4Cc4ccccc4)c3n2)c1 [Example 83, [3-(7-benzyl-4-morpholin-4-yl-7H-pyrrolo[2,3-h]quinazolin-2-yl)phenyl]methanol] | 320 nM | 1700 nM | 123 nM | –
CCOC(=O)Nc1ccc(-c2nc(N3CCOCC3)c3ccc4c(ccn4S(C)(=O)=O)c3n2)cc1 [Example 86, ethyl {4-[7-(methylsulfonyl)-4-morpholin-4-yl-7H-pyrrolo[2,3-h]quinazolin-2-yl]phenyl}carbamate] | – | – | – | 15500 nM
CCCC(=O)Nc1ccc(-c2nc(N3CCOCC3)c3ccc4c(ccn4S(C)(=O)=O)c3n2)cc1 [Example 88, N-{4-[7-(methylsulfonyl)-4-morpholin-4-yl-7H-pyrrolo[2,3-h]quinazolin-2-yl]phenyl}butanamide] | – | – | – | > 20000 nM
CCOC(=O)Nc1ccc(-c2nc(N3CCOCC3)c3ccc4c(ccn4CCN(C)C)c3n2)cc1 [Example 93, ethyl (4-{7-[2-(dimethylamino)ethyl]-4-morpholin-4-yl-7H-pyrrolo[2,3-h]quinazolin-2-yl}phenyl)carbamate] | – | – | – | > 20000 nM
CN(C)CCn1ccc2c3nc(-c4ccc(NC(=O)C5CC5)cc4)nc(N4CCOCC4)c3ccc21 [Example 96, N-(4-{7-[2-(dimethylamino)ethyl]-4-morpholin-4-yl-7H-pyrrolo[2,3-h]quinazolin-2-yl}phenyl)cyclopropanecarboxamide] | – | 5250 nM | – | > 20000 nM
CCCC(=O)Nc1ccc(-c2nc(N3CCOCC3)c3ccc4c(ccn4CCN(C)C)c3n2)cc1 [Example 97, N-(4-{7-[2-(dimethylamino)ethyl]-4-morpholin-4-yl-7H-pyrrolo[2,3-h]quinazolin-2-yl}phenyl)butanamide] | – | 6200 nM | – | > 20000 nM
COC(=O)Nc1ccc(-c2nc(N3CCOCC3)c3ccc4c(ccn4CCN(C)C)c3n2)cc1 [Example 98, methyl (4-{7-[2-(dimethylamino)ethyl]-4-morpholin-4-yl-7H-pyrrolo[2,3-h]quinazolin-2-yl}phenyl)carbamate] | – | 2000 nM | – | > 20000 nM
CC(C)NC(=O)Nc1ccc(-c2nc(N3CCOCC3)c3ccc4c(ccn4C)c3n2)cc1 [Example 99, 1-(1-methylethyl)-3-[4-(7-methyl-4-morpholin-4-yl-7H-pyrrolo[2,3-h]quinazolin-2-yl)phenyl]urea] | – | 215 nM | – | 14500 nM
Cn1ccc2c3nc(-c4ccc(NC(=O)NCC5CC5)cc4)nc(N4CCOCC4)c3ccc21 [Example 100, 1-(cyclopropylmethyl)-3-[4-(7-methyl-4-morpholin-4-yl-7H-pyrrolo[2,3-h]quinazolin-2-yl)phenyl]urea] | – | 500 nM | – | 16000 nM
COCCNC(=O)Nc1ccc(-c2nc(N3CCOCC3)c3ccc4c(ccn4C)c3n2)cc1 [Example 101, 1-(2-methoxyethyl)-3-[4-(7-methyl-4-morpholin-4-yl-7H-pyrrolo[2,3-h]quinazolin-2-yl)phenyl]urea] | – | 1800 nM | – | > 20000 nM
Cn1ccc2c3nc(-c4ccc(NC(=O)NCC5CCCO5)cc4)nc(N4CCOCC4)c3ccc21 (stereo not shown) [Example 102, 1-[4-(7-methyl-4-morpholin-4-yl-7H-pyrrolo[2,3-h]quinazolin-2-yl)phenyl]-3-(tetrahydrofuran-2-ylmethyl)urea] | – | 1500 nM | – | > 17000 nM
Cn1ccc2c3nc(-c4ccc(NC(=O)NCCCN5CCCC5)cc4)nc(N4CCOCC4)c3ccc21 [Example 104] | – | 2400 nM | – | > 20000 nM

The next lines start with the values.

IC50 [1] | IC50 [2] | IC50 [3] | IC50 [4] | Compound
– | – | – | 475 nM | CS(=O)(=O)n1ccc2c3nc(-c4ccc(NC(=O)Nc5ccccc5)cc4)nc(N4CCOCC4)c3ccc21 [Example 84, 1-{4-[7-(methylsulfonyl)-4-morpholin-4-yl-7H-pyrrolo[2,3-h]quinazolin-2-yl]phenyl}-3-phenylurea]
– | – | – | 5600 nM | CS(=O)(=O)n1ccc2c3nc(-c4ccc(NC(=O)C5CC5)cc4)nc(N4CCOCC4)c3ccc21 [Example 87, N-{4-[7-(methylsulfonyl)-4-morpholin-4-yl-7H-pyrrolo[2,3-h]quinazolin-2-yl]phenyl}cyclopropanecarboxamide]
– | – | – | 5600 nM | COC(=O)Nc1ccc(-c2nc(N3CCOCC3)c3ccc4c(ccn4S(C)(=O)=O)c3n2)cc1 [Example 90, methyl {4-[7-(methylsulfonyl)-4-morpholin-4-yl-7H-pyrrolo[2,3-h]quinazolin-2-yl]phenyl}carbamate]
– | – | – | 6100 nM | CCC(=O)Nc1ccc(-c2nc(N3CCOCC3)c3ccc4c(ccn4S(C)(=O)=O)c3n2)cc1 [Example 91, N-{4-[7-(methylsulfonyl)-4-morpholin-4-yl-7H-pyrrolo[2,3-h]quinazolin-2-yl]phenyl}propanamide]
– | – | – | 5250 nM | CC(=O)Nc1ccc(-c2nc(N3CCOCC3)c3ccc4c(ccn4S(C)(=O)=O)c3n2)cc1 [Example 92, N-{4-[7-(methylsulfonyl)-4-morpholin-4-yl-7H-pyrrolo[2,3-h]quinazolin-2-yl]phenyl}acetamide]
– | – | – | 2000 nM | CCNC(=O)Nc1ccc(-c2nc(N3CCOCC3)c3ccc4c(ccn4CCN(C)C)c3n2)cc1 [Example 94, 1-(4-{7-[2-(dimethylamino)ethyl]-4-morpholin-4-yl-7H-pyrrolo[2,3-h]quinazolin-2-yl}phenyl)-3-ethylurea]
– | 50 nM | – | 1800 nM | CN(C)CCn1ccc2c3nc(-c4ccc(NC(=O)Nc5ccccc5)cc4)nc(N4CCOCC4)c3ccc21 [Example 95, 1-(4-{7-[2-(dimethylamino)ethyl]-4-morpholin-4-yl-7H-pyrrolo[2,3-h]quinazolin-2-yl}phenyl)-3-phenylurea]
– | – | – | 6500 nM | Cn1ccc2c3nc(-c4cccc(NC(=O)Nc5ccncc5)c4)nc(N4CCOCC4)c3ccc21 [Example 122, 1-[3-(7-methyl-4-morpholin-4-yl-7H-pyrrolo[2,3-h]quinazolin-2-yl)phenyl]-3-pyridin-4-ylurea]
